Data on four compounds can be found in ChEMBL document CHEMBL4396937, “Synthesis of new triazole fused imidazo[2,1-b]thiazole hybrids with emphasis on Staphylococcus aureus virulence factors” (Bioorg Med Chem Lett, 2019).

Structures are written as SMILES. Values after ≈ are worked out from the molar mass of the structure shown. Active and inactive are the calls of the source.

What is called MIC is the least concentration at which growth counts as inhibited. For orientation: MBC means the lowest tested concentration that kills the bacteria rather than only halting them. As usually defined, the MFC is the smallest concentration meeting the test's criterion for killing the fungus. In general, IC50 refers to the concentration at which inhibition is half-maximal.

The test system of experiment [1] is Bacillus subtilis. Briefly: Antibacterial activity against Bacillus subtilis MTCC 121 assessed as reduction in bacterial growth incubated for 24 hrs by agar well diffusion method. Format: functional. In general terms: In agar diffusion tests the substance spreads into inoculated agar from a disc or well.
Experiment [2] deals with Staphylococcus aureus. Description: Antibacterial activity against Staphylococcus aureus MLS-16 MTCC 2940 assessed as reduction in bacterial growth incubated for 24 hrs by agar well diffusion method. The class given is functional.
The subject of experiment [3] is Micrococcus luteus. Briefly: Antibacterial activity against Micrococcus luteus MTCC 2470 assessed as reduction in bacterial growth incubated for 24 hrs by agar well diffusion method. The class given is functional.
The subject of experiment [4] is Staphylococcus aureus. Briefly: Antibacterial activity against Staphylococcus aureus MTCC 96 assessed as reduction in bacterial growth incubated for 24 hrs by agar well diffusion method. Format: functional.
Experiment [5] deals with Escherichia coli. Briefly: Antibacterial activity against Escherichia coli MTCC 739 assessed as reduction in bacterial growth incubated for 24 hrs by agar well diffusion method. Format: functional.
For experiment [6], the system named is Pseudomonas aeruginosa. Briefly: Antibacterial activity against Pseudomonas aeruginosa MTCC 2453 assessed as reduction in bacterial growth incubated for 24 hrs by agar well diffusion method. The class given is functional.
In experiment [7] the test system is Raoultella planticola. Description: Antibacterial activity against Klebsiella planticola MTCC 530 assessed as reduction in bacterial growth incubated for 24 hrs by agar well diffusion method. The class given is functional.
For experiment [8], the system named is Candida albicans. Briefly: Antifungal activity against Candida albicans MTCC 3017 assessed as reduction in fungal growth incubated for 24 hrs by agar well diffusion method. The class given is functional. The conditions noted are these: MTCC 3017, 24 h.
For experiment [9], the system named is Bacillus subtilis. Description: Bactericidal activity against Bacillus subtilis MTCC 121 assessed as reduction in bacterial survival incubated for 24 hrs followed by transfer of microbial suspension to agar plates and measured at 24 hrs post transfer by agar well diffusion method. Format: functional.
For experiment [10], the system named is Staphylococcus aureus. Briefly: Bactericidal activity against Staphylococcus aureus MLS-16 MTCC 2940 assessed as reduction in bacterial survival incubated for 24 hrs followed by transfer of microbial suspension to agar plates and measured at 24 hrs post transfer by agar well diffusion method. The class given is functional.
For experiment [11], the system named is Micrococcus luteus. Briefly: Bactericidal activity against Micrococcus luteus MTCC 2470 assessed as reduction in bacterial survival incubated for 24 hrs followed by transfer of microbial suspension to agar plates and measured at 24 hrs post transfer by agar well diffusion method. The class given is functional.
Experiment [12] relates to Staphylococcus aureus. Description: Bactericidal activity against Staphylococcus aureus MTCC 96 assessed as reduction in bacterial survival incubated for 24 hrs followed by transfer of microbial suspension to agar plates and measured at 24 hrs post transfer by agar well diffusion method. Format: functional.
For experiment [13], the system named is Escherichia coli. Briefly: Bactericidal activity against Escherichia coli MTCC 739 assessed as reduction in bacterial survival incubated for 24 hrs followed by transfer of microbial suspension to agar plates and measured at 24 hrs post transfer by agar well diffusion method. The class given is functional.
Experiment [14] has as its system Pseudomonas aeruginosa. Briefly: Bactericidal activity against Pseudomonas aeruginosa MTCC 2453 assessed as reduction in bacterial survival incubated for 24 hrs followed by transfer of microbial suspension to agar plates and measured at 24 hrs post transfer by agar well diffusion method. Format: functional.
The subject of experiment [15] is Raoultella planticola. Description: Bactericidal activity against Klebsiella planticola MTCC 530 assessed as reduction in bacterial survival incubated for 24 hrs followed by transfer of microbial suspension to agar plates and measured at 24 hrs post transfer by agar well diffusion method. The class given is functional.
For experiment [16], the system named is Candida albicans. Briefly: Fungicidal activity against Candida albicans MTCC 3017 assessed as reduction in fungal survival incubated for 24 hrs followed by transfer of microbial suspension to agar plates and measured at 24 hrs post transfer by agar well diffusion method. Format: functional. The conditions noted are these: MTCC 3017, 24 h.
The test system of experiment [17] is Bacillus subtilis. Description: Antibiofilm activity against Bacillus subtilis MTCC 121 assessed as inhibition of biofilm formation by crystal violet staining-based microtitre plate assay. The class given is functional, organism-based.
The subject of experiment [18] is Staphylococcus aureus. Description: Antibiofilm activity against Staphylococcus aureus MLS-16 MTCC 2940 assessed as inhibition of biofilm formation by crystal violet staining-based microtitre plate assay. Format: functional, organism-based.
Experiment [19] relates to Micrococcus luteus. Briefly: Antibiofilm activity against Micrococcus luteus MTCC 2470 assessed as inhibition of biofilm formation by crystal violet staining-based microtitre plate assay. The class given is functional, organism-based.
The test system of experiment [20] is Staphylococcus aureus. Briefly: Antibiofilm activity against Staphylococcus aureus MTCC 96 assessed as inhibition of biofilm formation by crystal violet staining-based microtitre plate assay. The class given is functional, organism-based.
In experiment [21] the test system is Escherichia coli. Briefly: Antibiofilm activity against Escherichia coli MTCC 739 assessed as inhibition of biofilm formation by crystal violet staining-based microtitre plate assay. The class given is functional, organism-based.
In experiment [22] the test system is Pseudomonas aeruginosa. Description: Antibiofilm activity against Pseudomonas aeruginosa MTCC 2453 assessed as inhibition of biofilm formation by crystal violet staining-based microtitre plate assay. The class given is functional, organism-based.
Experiment [23] relates to Raoultella planticola. Description: Antibiofilm activity against Klebsiella planticola MTCC 530 assessed as inhibition of biofilm formation by crystal violet staining-based microtitre plate assay. Format: functional, organism-based.
The test system of another experiment is MRC5. Briefly: Cytotoxicity against human MRC5 cells assessed as reduction in cell viability incubated for 48 hrs by MTT assay. The class given is cell-based. The conditions noted are these: MRC5, 48 h. Background: Formazan colour is commonly taken as a measure of viable cells.

Regarding `O=C(c1cn(-c2ccc(F)cc2Br)nn1)c1c(-c2ccccc2)nc2sccn12`, the MIC came to 3.9 µg/mL (≈ 8.33 µM) in the experiment with Bacillus subtilis [1] (MTCC 121, 24 h); 1.9 µg/mL (≈ 4.06 µM) with Staphylococcus aureus [2] (MLS-16 MTCC 2940, 24 h); 3.9 µg/mL (≈ 8.33 µM) in the experiment with Micrococcus luteus [3] (MTCC 2470, 24 h); 1.9 µg/mL (≈ 4.06 µM) with Staphylococcus aureus [4] (MTCC 96, 24 h); 1.9 µg/mL (≈ 4.06 µM) in the experiment on Escherichia coli [5] (MTCC 739, 24 h); 3.9 µg/mL (≈ 8.33 µM) in the experiment with Pseudomonas aeruginosa [6] (MTCC 2453, 24 h). For the same compound, the MIC with Raoultella planticola [7] (MTCC 530, 24 h) stood at 3.9 µg/mL (≈ 8.33 µM); with Candida albicans [8], 7.8 µg/mL (≈ 16.7 µM). Besides, the MBC in the experiment on Bacillus subtilis [9] (MTCC 121, 24 h) came out at 7.8 µg/mL (≈ 16.7 µM); in the experiment on Staphylococcus aureus [10] (MLS-16 MTCC 2940, 24 h), 3.9 µg/mL (≈ 8.33 µM); in the experiment with Micrococcus luteus [11] (MTCC 2470, 24 h), 7.8 µg/mL (≈ 16.7 µM); with Staphylococcus aureus [12] (MTCC 96, 24 h), 3.9 µg/mL (≈ 8.33 µM); in the experiment with Escherichia coli [13] (MTCC 739, 24 h), 3.9 µg/mL (≈ 8.33 µM); in the experiment with Pseudomonas aeruginosa [14] (MTCC 2453, 24 h) it was 7.8 µg/mL (≈ 16.7 µM). The MBC with Raoultella planticola [15] (MTCC 530, 24 h) came to 7.8 µg/mL (≈ 16.7 µM). Further, the MFC in the experiment on Candida albicans [16] was determined as 15.6 µg/mL (≈ 33.3 µM). Besides, the IC50 worked out at 13.5 µg/mL (≈ 28.8 µM) in the experiment with Bacillus subtilis [17]; 12.8 µg/mL (≈ 27.3 µM) in the experiment on Staphylococcus aureus [18]; 12.3 µg/mL (≈ 26.3 µM) with Micrococcus luteus [19]; 13.5 µg/mL (≈ 28.8 µM) in the experiment on Staphylococcus aureus [20]; 18.2 µg/mL (≈ 38.9 µM) with Escherichia coli [21]; 18.2 µg/mL (≈ 38.9 µM) in the experiment on Pseudomonas aeruginosa [22]. For the same compound, the IC50 in the experiment with Raoultella planticola [23] was found to be 17.3 µg/mL (≈ 36.9 µM); with MRC5, 48.2 µg/mL (≈ 103 µM).
Consider `O=C(c1cn(-c2ccc(Cl)cc2)nn1)c1c(-c2ccc(Cl)cc2)nc2sccn12`, for which the MIC was determined as 3.9 µg/mL (≈ 8.86 µM) with Bacillus subtilis [1] (MTCC 121, 24 h); 7.8 µg/mL (≈ 17.7 µM) in the experiment with Staphylococcus aureus [2] (MLS-16 MTCC 2940, 24 h); 3.9 µg/mL (≈ 8.86 µM) in the experiment with Micrococcus luteus [3] (MTCC 2470, 24 h); 3.9 µg/mL (≈ 8.86 µM) with Staphylococcus aureus [4] (MTCC 96, 24 h); 3.9 µg/mL (≈ 8.86 µM) in the experiment with Escherichia coli [5] (MTCC 739, 24 h); 3.9 µg/mL (≈ 8.86 µM) in the experiment with Pseudomonas aeruginosa [6] (MTCC 2453, 24 h). Moreover, the MIC in the experiment on Raoultella planticola [7] (MTCC 530, 24 h) came out at 3.9 µg/mL (≈ 8.86 µM); in the experiment with Candida albicans [8], 7.8 µg/mL (≈ 17.7 µM). Further, the MBC with Bacillus subtilis [9] (MTCC 121, 24 h) is 7.8 µg/mL (≈ 17.7 µM); in the experiment with Staphylococcus aureus [10] (MLS-16 MTCC 2940, 24 h), 15.6 µg/mL (≈ 35.4 µM); in the experiment on Micrococcus luteus [11] (MTCC 2470, 24 h), 7.8 µg/mL (≈ 17.7 µM); in the experiment with Staphylococcus aureus [12] (MTCC 96, 24 h) it was 7.8 µg/mL (≈ 17.7 µM); with Escherichia coli [13] (MTCC 739, 24 h) it was 7.8 µg/mL (≈ 17.7 µM); in the experiment with Pseudomonas aeruginosa [14] (MTCC 2453, 24 h), 7.8 µg/mL (≈ 17.7 µM). In the experiment with Raoultella planticola [15] (MTCC 530, 24 h), the MBC came to 7.8 µg/mL (≈ 17.7 µM). In addition, in the experiment on Candida albicans [16], the minimum fungicidal concentration (MFC) stood at 15.6 µg/mL (≈ 35.4 µM). For the same compound, the IC50 in the experiment with Bacillus subtilis [17] worked out at 13.2 µg/mL (≈ 30 µM); in the experiment on Staphylococcus aureus [18] it was 11.9 µg/mL (≈ 27 µM); in the experiment on Micrococcus luteus [19] it was 13.7 µg/mL (≈ 31.1 µM); in the experiment on Staphylococcus aureus [20], 18.4 µg/mL (≈ 41.8 µM); with Escherichia coli [21], 14 µg/mL (≈ 31.8 µM); in the experiment with Pseudomonas aeruginosa [22] it was 19.3 µg/mL (≈ 43.8 µM). For the same compound, the IC50 is 16.8 µg/mL (≈ 38.2 µM) in the experiment on Raoultella planticola [23] and 24.2 µg/mL (≈ 55 µM) in the experiment on MRC5.
On to `COc1ccc(-c2nc3sccn3c2C(=O)c2cn(-c3ccc(Br)cc3)nn2)cc1`, for which the MIC is 7.8 µg/mL (≈ 16.2 µM) in the experiment with Bacillus subtilis [1] (MTCC 121, 24 h); 7.8 µg/mL (≈ 16.2 µM) with Staphylococcus aureus [2] (MLS-16 MTCC 2940, 24 h); 7.8 µg/mL (≈ 16.2 µM) with Micrococcus luteus [3] (MTCC 2470, 24 h); 3.9 µg/mL (≈ 8.12 µM) in the experiment on Staphylococcus aureus [4] (MTCC 96, 24 h); more than 125 µg/mL in the experiment on Escherichia coli [5] (MTCC 739, 24 h); more than 125 µg/mL in the experiment on Pseudomonas aeruginosa [6] (MTCC 2453, 24 h). The MIC in the experiment on Raoultella planticola [7] (MTCC 530, 24 h) turned out to be 15.6 µg/mL (≈ 32.5 µM); in the experiment with Candida albicans [8], 7.8 µg/mL (≈ 16.2 µM). In addition, the minimum bactericidal concentration (MBC) was 15.6 µg/mL (≈ 32.5 µM) with Bacillus subtilis [9] (MTCC 121, 24 h); 15.6 µg/mL (≈ 32.5 µM) with Staphylococcus aureus [10] (MLS-16 MTCC 2940, 24 h); 15.6 µg/mL (≈ 32.5 µM) in the experiment with Micrococcus luteus [11] (MTCC 2470, 24 h); 7.8 µg/mL (≈ 16.2 µM) in the experiment with Staphylococcus aureus [12] (MTCC 96, 24 h); more than 125 µg/mL in the experiment on Escherichia coli [13] (MTCC 739, 24 h); more than 125 µg/mL in the experiment with Pseudomonas aeruginosa [14] (MTCC 2453, 24 h). For the same compound, the MBC in the experiment with Raoultella planticola [15] (MTCC 530, 24 h) is 31.2 µg/mL (≈ 65 µM). For the same compound, the MFC in the experiment with Candida albicans [16] worked out at 15.6 µg/mL (≈ 32.5 µM).
`Clc1ccc(COC(Cn2ccnc2)c2ccc(Cl)cc2Cl)c(Cl)c1` (stereo not given) [MICONAZOLE]: the MIC entry in the experiment on Bacillus subtilis [1], with Staphylococcus aureus [2], in the experiment with Micrococcus luteus [3], in the experiment on Staphylococcus aureus [4], in the experiment on Escherichia coli [5] and with Pseudomonas aeruginosa [6] was “inactive” throughout. Moreover, the MIC result with Raoultella planticola [7] is “inactive”. The minimum inhibitory concentration (MIC) in the experiment with Candida albicans [8] came out at 3.9 µg/mL (≈ 9.37 µM). Further, the MBC result in the experiment on Bacillus subtilis [9], in the experiment with Staphylococcus aureus [10], with Micrococcus luteus [11], in the experiment on Staphylococcus aureus [12], in the experiment on Escherichia coli [13] and in the experiment with Pseudomonas aeruginosa [14] was “inactive” each time. Moreover, in the experiment on Raoultella planticola [15], the MBC result was “inactive”. Also, in the experiment with Candida albicans [16], the MFC was 3.9 µg/mL (≈ 9.37 µM).
